According to ChEMBL document CHEMBL4364243, “Structure-activity relationships of potentiators of the antibiotic activity of clarithromycin against Escherichia coli” (2019):
Converted amounts (≈) assume the structure as drawn. The source made the active and inactive calls. The rule behind the calls is not given here. Bridge positions count the residues as written; N and C are the ends. Square brackets hold non-standard residues; d marks the D form. Peptide text beside a SMILES is read from it. * marks the point of attachment. X1 = CC[C@H](C)CCCCC(=O)*; βNA = c1ccc2cc(N*)ccc2c1; Dab = NCC[C@H](N)C(=O)O

Columns and labels:
Escherichia coli [1] = test: Potentiation of clarithromycin-induced antibacterial activity against Escherichia coli ATCC 25922 assessed as clarithromycin MIC at 12.5 ug/ml incubated for 24 hrs by microtiter plate reader analysis (reference value: 64 microg/ml); type: functional; conditions: ATCC 25922, 24 h
Escherichia coli [2] = test: Potentiation of clarithromycin-induced antibacterial activity against Escherichia coli ATCC 25922 assessed as fold reduction in clarithromycin MIC at 12.5 ug/ml incubated for 24 hrs in presence of clarithromycin; type: functional
Escherichia coli [3] = test: Antibacterial activity against Escherichia coli ATCC 25922 incubated for 24 hrs by serial dilution method; type: functional; conditions: ATCC 25922, 24 h
Pseudomonas aeruginosa = test: Potentiation of levofloxacin-induced antibacterial activity against Pseudomonas aeruginosa assessed as concentration required to decrease levofloxacin MIC by 8 fold in presence of levofloxacin; type: functional; conditions: read-out: MEC
Escherichia coli [4] = test: Potentiation of clarithromycin-induced antibacterial activity against Escherichia coli ATCC 25922 assessed as fold reduction in clarithromycin MIC at 50 ug/ml incubated for 24 hrs in presence of clarithromycin; type: functional
Escherichia coli [5] = test: Potentiation of calrithromycin-induced antibacterial activity against Escherichia coli ATCC 25922 assessed as clarithromycin MIC at 50 ug/ml incubated for 24 hrs by microtiter plate reader analysis (reference value: 64 microg/ml); type: functional; conditions: ATCC 25922, 24 h
[6] = system: Escherichia coli ATCC 25922; test: Inhibition of efflux pump in CCCP-pretreated Escherichia coli ATCC 25922 assessed as […] by measuring decrease in fluorescence intensity pre-incubated for 5 mins followed by glucose addition by Hoechst 33342 staining based fluorescence assay
Escherichia coli [7] = test: Induction of inner membrane permeabilization in Escherichia coli ATCC 25922 assessed as increase in propidium iodide uptake at 1/32 to 1/2 times MIC by PI staining based flow cytometric analysis; type: organism-based
[8] = system: Escherichia coli ATCC 25922; test: Induction of outer membrane permeabilization/inhibition of AcrAB-TolC efflux pump in Escherichia coli ATCC 25922 assessed as increase in NPN uptake incubated for 10 mins in dark by fluorescence assay
[9] = system: Escherichia coli ATCC 25922; test: Induction of outer membrane permeabilization/inhibition of AcrAB-TolC efflux pump in Escherichia coli ATCC 25922 assessed as increase in NPN uptake at 1/32 to 1/2 times MIC incubated for 10 mins in dark by fluorescence assay

| SMILES | MIC (Escherichia coli [1]) [µg/mL] | fold change (FC) (Escherichia coli [2]) | MIC (Escherichia coli [3]) [µg/mL] | also measured |
| --- | --- | --- | --- | --- |
| NC[C@@H](N)CCCNC(CCc1ccccc1)CCc1ccccc1 | 4 | 16 | 25 (≈ 73.6 µM) |  |
| NC[C@@H](N)CCC(=O)NC(CCc1ccccc1)CCc1ccccc1 | 32 | 2 | 100 (≈ 283 µM) |  |
| CC[C@H]1OC(=O)[C@H](C)[C@@H](O[C@H]2C[C@@](C)(OC)[C@@H](O)[C@H](C)O2)[C@H](C)[C@@H](O[C@@H]2O[C@H](C)C[C@H](N(C)C)[C@H]2O)[C@](C)(OC)C[C@@H](C)C(=O)[C@H](C)[C@@H](O)[C@]1(C)O [CLARITHROMYCIN] |  |  | 64 (≈ 85.6 µM) |  |
| N=C(N)NCCC[C@H](NC(=O)[C@@H](N)Cc1ccccc1)C(=O)Nc1ccc2ccccc2c1 [PABETAN] (H-Phe-Arg-βNA) |  |  | > 100 | minimal effective concentration (Pseudomonas aeruginosa): 10 µg/mL; fold change (FC) (Escherichia coli [4]): 4; MIC (Escherichia coli [5]): 16 µg/mL |
| COc1ccc(CN2CCN(C(CCc3ccccc3)CCc3ccccc3)CC2)cc1 | 64 | 1 | > 100 |  |
| NCC[C@H](N)C(=O)NC(CCc1ccccc1)CCc1ccccc1 | 32 | 2 | 100 (≈ 295 µM) |  |
| CN(C(=O)[C@@H](N)CCCN)C(c1ccccc1)c1ccccc1 | 32 | 2 | > 100 |  |
| NC[C@@H](N)CCNC(CCc1ccccc1)CCc1ccccc1 | 32 | 2 | 100 (≈ 307 µM) |  |
| CN(C(=O)[C@@H](N)CCCN)C(Cc1ccccc1)Cc1ccccc1 | 32 | 2 | > 100 |  |
| NCCC[C@@H](N)C(=O)N[C@H](CCc1ccccc1)COc1ccc(Cl)cc1 |  |  |  | minimal effective concentration (Pseudomonas aeruginosa): 5 µg/mL |
| NCC[C@H](N)CC(=O)NC(CCc1ccccc1)CCc1ccccc1 | 4 | 16 | 100 (≈ 283 µM) |  |
| NC[C@@H](N)CC(=O)NC(CCc1ccccc1)CCc1ccccc1 | 64 | 1 | 200 (≈ 589 µM) |  |
| CN(C)CCC[C@H](N)C(=O)NC(CCc1ccccc1)CCc1ccccc1 | 64 | 1 | > 100 |  |
| NCCC[C@@H](N)C(=O)N[C@H](CCc1ccccc1)C(=O)Nc1ncc(C(=O)Nc2cnc3ccccc3c2)o1 |  |  |  | minimal effective concentration (Pseudomonas aeruginosa): 5 µg/mL |
| CNCCC[C@H](N)C(=O)NC(CCc1ccccc1)CCc1ccccc1 | 64 | 1 | 100 (≈ 272 µM) |  |
| NCC[C@H](N)CNC(CCc1ccccc1)CCc1ccccc1 | 16 | 4 | 100 (≈ 307 µM) |  |
| NCCC[C@H](NC(=O)[C@@H](N)Cc1ccccc1)C(=O)Nc1ccc2ccccc2c1 |  |  |  | minimal effective concentration (Pseudomonas aeruginosa): 5 µg/mL |
| NCCC[C@@H](N)C(=O)N[C@H](CCc1ccccc1)C(=O)Nc1cnc2ccccc2c1 |  |  |  | minimal effective concentration (Pseudomonas aeruginosa): 10 µg/mL |
| NCCC[C@H](N)C(=O)NC(CCc1ccccc1)CCc1ccccc1 | 16 | 4 | > 100 |  |
| CN1CCN(C(CCc2ccccc2)CCc2ccccc2)CC1 | 64 | 1 | > 100 |  |
| NCCC[C@@H](N)C(=O)N[C@H](CCc1ccccc1)CSc1ccc(Cl)cc1 |  |  |  | minimal effective concentration (Pseudomonas aeruginosa): 1.25 µg/mL |
| NCCC[C@@H](N)C(=O)NC(CCc1ccccc1)CCc1ccccc1 | 32 | 2 | > 100 |  |
| CN(C(=O)[C@@H](N)CCCN)C(CCc1ccccc1)CCc1ccccc1 | 32 | 2 | > 100 |  |
| NCCC[C@H](N)C(=O)NC(Cc1ccccc1)Cc1ccccc1 | 32 | 2 | > 100 |  |
| N=C(N)NCCC[C@H](N)C(=O)NC(CCc1ccccc1)CCc1ccccc1 | 32 | 2 | > 100 |  |
| NCC[C@H](N)CCNC(CCc1ccccc1)CCc1ccccc1 | 2 | 32 | 100 (≈ 295 µM) | inhibition [6]: Dose-dependent effect; Activity (Escherichia coli [7]): inactive; Activity [8]: Dose-dependent effect |
| NCCC[C@H](N)C(=O)NC(c1ccccc1)c1ccccc1 | 64 | 1 | > 100 |  |
| CC[C@H](C)CCCCC(=O)N[C@@H](CCN)C(=O)N[C@H](C(=O)N[C@@H](CCN)C(=O)N[C@H]1CCNC(=O)[C@H]([C@@H](C)O)NC(=O)[C@H](CCN)NC(=O)[C@H](CCN)NC(=O)[C@H](CC(C)C)NC(=O)[C@@H](Cc2ccccc2)NC(=O)[C@H](CCN)NC1=O)[C@@H](C)O (X1-[Dab]T[Dab][Dab][Dab][dF]L[Dab][Dab]T; lactam 4-C) |  |  | 1.56 (≈ 1.3 µM) | Activity (Escherichia coli [7]): Active; Activity [9]: Active |
| NCCC[C@H](N)CNC(CCc1ccccc1)CCc1ccccc1 | 8 | 8 | 25 (≈ 73.6 µM) |  |
